{"source": "paper PMC5459446", "about": "“A phase I study of single-agent perifosine for recurrent or refractory pediatric CNS and solid tumors” (PLoS ONE, 2017)", "tested_on": "recurrent or refractory pediatric CNS and solid tumors", "test": "Tumor response assessment (RECIST; INRC for neuroblastoma)", "format": "in vivo, human", "design": "key to Best Response: no response per INRC; PD: progressive disease per RECIST or INRC; SD: stable disease per RECIST", "details": "for Subjects with stable disease as best response: stable disease for 2 months", "protocol": "Tumor assessments were performed approximately every 8 weeks. For subjects with tumors other than neuroblastoma, responses were assessed by the study radiologist and principal investigator (SH, ID) via the Response Evaluation Criteria in Solid Tumors (RECIST). For subjects with neuroblastoma, responses were assessed by a single investigator (BK) using the International Neuroblastoma Response Criteria (INRC).", "note": "Structures can show the parent of a compound that is named as a salt."}
{"smiles": "CCCCCCCCCCCCCCCCCCOP(=O)([O-])OC1CC[N+](C)(C)CC1", "note": "[perifosine, 1,1-Dimethyl-4-[[(octadecyloxy)hydroxyphosphinyl]oxy]-piperidinium inner salt]", "values": [{"measurement": "Objective responses", "setting": "23 patients, all dose levels", "result": "No objective responses"}, {"measurement": "Best Response", "setting": "Patient 1, dose level 1, medulloblastoma", "result": "PD"}, {"measurement": "Best Response", "setting": "Patient 2, dose level 1, medulloblastoma", "result": "PD"}, {"measurement": "Best Response", "setting": "Patient 3, dose level 1, neuroblastoma", "result": "NR"}, {"measurement": "Duration of Best Response", "setting": "Patient 3, dose level 1, neuroblastoma, NR", "result": 11, "unit": "months"}, {"measurement": "Best Response", "setting": "Patient 4, dose level 2, glioblastoma", "result": "PD"}, {"measurement": "Best Response", "setting": "Patient 5, dose level 2, neuroblastoma", "result": "NR"}, {"measurement": "Duration of Best Response", "setting": "Patient 5, dose level 2, neuroblastoma, NR", "result": 63, "unit": "months"}, {"measurement": "Best Response", "setting": "Patient 6, dose level 2, anaplastic astrocytoma", "result": "SD"}, {"measurement": "Duration of Best Response", "setting": "Patient 6, dose level 2, anaplastic astrocytoma, SD", "result": 2, "unit": "months"}, {"measurement": "Best Response", "setting": "Patient 7, dose level 3, glioblastoma", "result": "SD"}, {"measurement": "Duration of Best Response", "setting": "Patient 7, dose level 3, glioblastoma, SD", "result": 2, "unit": "months"}, {"measurement": "Best Response", "setting": "Patient 8, dose level 3, anaplastic astrocytoma", "result": "SD"}, {"measurement": "Duration of Best Response", "setting": "Patient 8, dose level 3, anaplastic astrocytoma, SD", "result": 2, "unit": "months"}, {"measurement": "Best Response", "setting": "Patient 9, dose level 3, anaplastic astrocytoma", "result": "SD"}, {"measurement": "Duration of Best Response", "setting": "Patient 9, dose level 3, anaplastic astrocytoma, SD", "result": 2, "unit": "months"}, {"measurement": "Best Response", "setting": "Patient 10, dose level 3, ependymoma", "result": "PD"}, {"measurement": "Best Response", "setting": "Patient 11, dose level 3, neuroblastoma", "result": "NR"}, {"measurement": "Duration of Best Response", "setting": "Patient 11, dose level 3, neuroblastoma, NR", "result": 2, "unit": "months"}, {"measurement": "Best Response", "setting": "Patient 12, dose level 4, neuroblastoma", "result": "PD"}, {"measurement": "Best Response", "setting": "Patient 13, dose level 4, Ewing sarcoma/PNET", "result": "PD"}, {"measurement": "Best Response", "setting": "Patient 14, dose level 4, neuroblastoma", "result": "NR"}, {"measurement": "Duration of Best Response", "setting": "Patient 14, dose level 4, neuroblastoma, NR", "result": 4, "unit": "months"}, {"measurement": "Best Response", "setting": "Patient 15, dose level 4, neuroblastoma", "result": "NR"}, {"measurement": "Duration of Best Response", "setting": "Patient 15, dose level 4, neuroblastoma, NR", "result": 42, "unit": "months"}, {"measurement": "Best Response", "setting": "Patient 16, dose level 4, neuroblastoma", "result": "PD"}, {"measurement": "Best Response", "setting": "Patient 17, dose level 4, DIPG", "result": "PD"}, {"measurement": "Best Response", "setting": "Patient 18, dose level 5, Wilms tumor", "result": "PD"}, {"measurement": "Best Response", "setting": "Patient 19, dose level 5, DIPG", "result": "PD"}, {"measurement": "Best Response", "setting": "Patient 20, dose level 5, DIPG", "result": "SD"}, {"measurement": "Duration of Best Response", "setting": "Patient 20, dose level 5, DIPG, SD", "result": 2, "unit": "months"}, {"measurement": "Best Response", "setting": "Patient 21, dose level 5, ependymoma", "result": "PD"}, {"measurement": "Best Response", "setting": "Patient 22, dose level 5, ependymoma", "result": "PD"}, {"measurement": "Best Response", "setting": "Patient 23, dose level 5, neuroblastoma", "result": "PD"}, {"measurement": "Subjects with disease stability (no response per INRC)", "setting": "neuroblastoma, for 2, 4, 11, 42 and 63 months", "result": "Five of 8"}, {"measurement": "Subjects with stable disease as best response", "setting": "recurrent high-grade astrocytoma", "result": "4 of 5"}, {"measurement": "Duration of prolonged stable disease", "setting": "three subjects with neuroblastoma", "result": "≥ 11", "unit": "months"}, {"measurement": "Subjects with stable disease as best response", "setting": "three subjects with recurrent DIPG", "result": 1}]}
